The results in this text go back to article PMC12010006, “Subnanomolar MAS-related G protein-coupled receptor-X2/B2 antagonists with efficacy in human mast cells and disease models” (Signal Transduction and Targeted Therapy, 2025).

The structures appear in SMILES notation. Bounds are passed on as bounds.

By inhibition is commonly meant how much of the control response was suppressed.

The target in this assay is T1, MRGPRX2 (Homo sapiens, UniProt Q96LB1).
T1 sequence (Q96LB1 1-330): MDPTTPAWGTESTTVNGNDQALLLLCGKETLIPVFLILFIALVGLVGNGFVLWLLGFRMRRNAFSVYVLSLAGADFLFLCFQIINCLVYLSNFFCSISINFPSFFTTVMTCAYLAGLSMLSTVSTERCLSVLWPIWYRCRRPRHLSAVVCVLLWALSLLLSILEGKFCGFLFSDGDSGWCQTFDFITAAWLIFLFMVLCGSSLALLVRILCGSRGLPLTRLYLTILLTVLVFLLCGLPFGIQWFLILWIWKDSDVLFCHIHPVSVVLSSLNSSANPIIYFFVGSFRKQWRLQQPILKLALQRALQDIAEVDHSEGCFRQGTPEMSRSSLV
The assay can be described thus: β-hexosaminidase release, primary human skin mast cells. Type of assay: cell-based. As for the experimental part: Finally, the effect of the MRGPRX2 antagonist PSB-172656 on MRGPRX2-mediated MC degranulation in primary human skin mast cells isolated from breast skin tissue was investigated. These cells were controlled by flow cytometry for CD117, FcεRI, and MRGPRX2 to ensure their purity (Supplementary Fig. S6), and their functionality was assessed using the MC degranulation β-hexosaminidase release assay (Fig. 6g).
MCs were isolated from breast skin tissue, which was sectioned into strips and digested overnight at 4 °C in 2.4 U/mL dispase type II (Fisher Scientific). […] The purity of the MC cultures was assessed by flow cytometry for CD117 and FcεRI (Miltenyi) and exceeded 95%. […]
For β-hexosaminidase release assays, MCs were fed the day before stimulation with the medium. […] The reaction was stopped by adding 100 µL of sodium carbonate buffer (pH 10.7), and fluorescence was measured at 460 nm and excitation at 355 nm for 0.1 s. The percentage of β-hexosaminidase release was calculated as: […] × 100. […]

Take `CCc1c(C(C)C)[nH]c2nc3cc(F)c(F)cc3n2c1=O` [Compound 24, 3-ethyl-7,8-difluoro-2-isopropylbenzo[4,5]imidazo [1,2-a] pyrimidin-4(1H)-one]: under “lowest tested concentration 1.25 µM, versus CST-14, read-out: inhibition of β-hexosaminidase release in human skin MCs”, the inhibition at 1.25 µM was greater than 50%. For the same compound, the “effect on MC degranulation in primary human skin mast cells” value (versus CST-14 (1 µM)) is given as “inhibited MC degranulation in response to CST-14 exposure (1 µM) in a concentration-dependent manner”.
